Where “and” joins values, the source holds several entries; their conditions need not be identical. Equal entries are not always repeated. Toxic doses and inconclusive results are not listed. No stated cut-off is given here; in the data, active means T/C of 150% or more; inactive means T/C below 125%.
Tested on: L1210 leukemia ip in BDF1 mice, survival T/C
Test: NCI In Vivo Anticancer Drug Screen. Data for tumor model L1210 Leukemia (intraperitoneal) in B6D2F1 (BDF1) mice
Conditions: endpoint: mean survival time, higher = longer survival
Procedure, shortened: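 In this screen, tumor-bearing mice given compound are compared to those given vehicle, and their survival values are reported as a treated-to-control quotient.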

[1] = dose: 75.0 mg/kg/injection, schedule: Q01DX001 (ip), vehicle: saline
[2] = dose: 150.0 mg/kg/injection, schedule: Q01DX001 (ip), vehicle: saline
[3] = dose: 300.0 mg/kg/injection, schedule: Q01DX001 (ip), vehicle: saline
[4] = dose: 6.25 mg/kg/injection, schedule: Q04DX002 (ip), vehicle: Klucel (hydroxypropylcellulose) (HPC)
[5] = dose: 100.0 mg/kg/injection, schedule: Q01DX001 (ip), vehicle: carboxymethylcellulose (CMC)
[6] = dose: 200.0 mg/kg/injection, schedule: Q01DX001 (ip), vehicle: carboxymethylcellulose (CMC)
[7] = dose: 400.0 mg/kg/injection, schedule: Q01DX001 (ip), vehicle: carboxymethylcellulose (CMC)
[8] = dose: 100.0 mg/kg/injection, schedule: Q01DX001 (ip), vehicle: saline
[9] = dose: 200.0 mg/kg/injection, schedule: Q01DX001 (ip), vehicle: saline
[10] = dose: 400.0 mg/kg/injection, schedule: Q01DX001 (ip), vehicle: saline
[11] = dose: 50.0 mg/kg/injection, schedule: Q01DX009 (ip), vehicle: Klucel (hydroxypropylcellulose) (HPC)
[12] = dose: 100.0 mg/kg/injection, schedule: Q01DX009 (ip), vehicle: Klucel (hydroxypropylcellulose) (HPC)
[13] = dose: 200.0 mg/kg/injection, schedule: Q01DX009 (ip), vehicle: Klucel (hydroxypropylcellulose) (HPC)
[14] = dose: 100.0 mg/kg/injection, schedule: Q04DX003 (ip), vehicle: Klucel (hydroxypropylcellulose) (HPC)
[15] = dose: 200.0 mg/kg/injection, schedule: Q04DX003 (ip), vehicle: Klucel (hydroxypropylcellulose) (HPC)
[16] = dose: 400.0 mg/kg/injection, schedule: Q04DX003 (ip), vehicle: Klucel (hydroxypropylcellulose) (HPC)
[17] = dose: 100.0 mg/kg/injection, schedule: Q04DX002 (ip), vehicle: Klucel (hydroxypropylcellulose) (HPC)
[18] = dose: 200.0 mg/kg/injection, schedule: Q04DX002 (ip), vehicle: Klucel (hydroxypropylcellulose) (HPC)
[19] = dose: 400.0 mg/kg/injection, schedule: Q01DX009 (ip), vehicle: Klucel (hydroxypropylcellulose) (HPC)
[20] = dose: 400.0 mg/kg/injection, schedule: Q04DX002 (ip), vehicle: Klucel (hydroxypropylcellulose) (HPC)
[21] = dose: 50.0 mg/kg/injection, schedule: Q01DX009 (ip), vehicle: saline with Tween-80
[22] = dose: 100.0 mg/kg/injection, schedule: Q01DX009 (ip), vehicle: saline with Tween-80
[23] = dose: 200.0 mg/kg/injection, schedule: Q01DX009 (ip), vehicle: saline with Tween-80
[24] = dose: 100.0 mg/kg/injection, schedule: Q01DX001 (ip), vehicle: Klucel (hydroxypropylcellulose) (HPC)
[25] = dose: 200.0 mg/kg/injection, schedule: Q01DX001 (ip), vehicle: Klucel (hydroxypropylcellulose) (HPC)
[26] = dose: 400.0 mg/kg/injection, schedule: Q01DX001 (ip), vehicle: Klucel (hydroxypropylcellulose) (HPC)

Measured: T/C

CC(C)=C(Br)Br
inactive: [1] 94 % of control | [2] 94 % of control | [3] 96 % of control

CN(C)c1ccc(C#N)cc1
inactive: dose: 1.5 mg/kg/injection, schedule: Q04DX002 (ip), vehicle: Klucel (hydroxypropylcellulose) (HPC) 107 % of control | dose: 3.1 mg/kg/injection, schedule: Q04DX002 (ip), vehicle: Klucel (hydroxypropylcellulose) (HPC) 107 % of control | [4] 97 % of control and 111 % of control

Cc1[nH]c2ccccc2c1C1CCC(=O)C1 (centres undefined)
inactive: [5] 100 % of control | [6] 89 % of control | [7] 93 % of control

Cc1cc(Cc2cc(C)c(N)cc2N)c(N)cc1N
inactive: [8] 88 % of control | [9] 93 % of control | [10] 90 % of control

CC(C)(C)NC(=O)Oc1ccc(Br)cc1Br
inactive: dose: 100.0 mg/kg/injection, schedule: Q01DX009 (ip), vehicle: saline 104 % of control | dose: 100.0 mg/kg/injection, schedule: Q04DX003 (ip), vehicle: saline 88 % of control | dose: 200.0 mg/kg/injection, schedule: Q01DX009 (ip), vehicle: saline 98 % of control | dose: 200.0 mg/kg/injection, schedule: Q04DX003 (ip), vehicle: saline 92 % of control | dose: 400.0 mg/kg/injection, schedule: Q01DX009 (ip), vehicle: saline 104 % of control | dose: 400.0 mg/kg/injection, schedule: Q04DX003 (ip), vehicle: saline 87 % of control

NCCCN1CCCC1=O
inactive: [8] 98 % of control | [9] 101 % of control | [10] 98 % of control

Cc1ccc(-c2c(C)c(-c3ccccc3)c(-c3ccccc3)c(C)c2-c2ccccc2)cc1C
inactive: dose: 100.0 mg/kg/injection, schedule: Q01DX001 (ip), vehicle: saline with Tween-80 104 % of control | dose: 200.0 mg/kg/injection, schedule: Q01DX001 (ip), vehicle: saline with Tween-80 100 % of control | dose: 400.0 mg/kg/injection, schedule: Q01DX001 (ip), vehicle: saline with Tween-80 100 % of control

CCNC(=S)N(CC)CC
inactive: [11] 104 % of control | [12] 102 % of control | dose: 100.0 mg/kg/injection, schedule: Q04DX003 (ip), vehicle: saline with Tween-80 100 % of control | [13] 114 % of control | dose: 200.0 mg/kg/injection, schedule: Q04DX003 (ip), vehicle: saline with Tween-80 103 % of control

COc1ccc(C(=O)CC(O)(C(F)(F)F)C(F)(F)F)cc1F
inactive: [14] 103 % of control | [15] 106 % of control | [16] 95 % of control

CNC(=O)Nc1nc2ccccc2s1
inactive: dose: 50.0 mg/kg/injection, schedule: Q04DX002 (ip), vehicle: Klucel (hydroxypropylcellulose) (HPC) 91 % of control | [12] 103 % of control | [17] 97 % of control and 98 % of control | [13] 93 % of control | [18] 94 % of control | [19] 93 % of control | [20] 90 % of control

Nc1nc(SCc2ccccc2)cc(C(=O)O)n1
inactive: dose: 25.0 mg/kg/injection, schedule: Q01DX Z (ip), vehicle: methylcellulose (MC) 92 % of control | dose: 50.0 mg/kg/injection, schedule: Q01DX Z (ip), vehicle: methylcellulose (MC) 101 % of control

COc1cc(CN)cc(OC)c1OC
inactive: dose: 50.0 mg/kg/injection, schedule: Q01DX001 (ip), vehicle: saline 100 % of control | [8] 96 % of control | [9] 96 % of control | [10] 100 % of control

CC(=O)Nc1ccc(S(=O)(=O)SC(Cl)(Cl)Cl)cc1
inactive: dose: 100.0 mg/kg/injection, schedule: Q01DX009 (ip), vehicle: gum acacia 99 % of control | dose: 200.0 mg/kg/injection, schedule: Q01DX009 (ip), vehicle: gum acacia 94 % of control | dose: 400.0 mg/kg/injection, schedule: Q01DX009 (ip), vehicle: gum acacia 99 % of control

O=S1(=O)C2CCCC1(Cl)CCC2
inactive: [1] 107 % of control | [2] 102 % of control | [3] 93 % of control

CCCCC1=Cc2cc3c(cc2C1N(C)C)OCO3 (centres undefined)
inactive: [4] 102 % of control | dose: 12.5 mg/kg/injection, schedule: Q04DX002 (ip), vehicle: Klucel (hydroxypropylcellulose) (HPC) 99 % of control | dose: 25.0 mg/kg/injection, schedule: Q04DX002 (ip), vehicle: Klucel (hydroxypropylcellulose) (HPC) 95 % of control and 105 % of control | [17] 92 % of control

O=C(OC/C=C/c1ccccc1)c1ccccc1
inactive: [21] 97 % of control | [22] 91 % of control | [23] 91 % of control

CCOC(=O)c1c[nH]c2nc(SC)[nH]c(=O)c2c1=O
inactive: dose: 25.0 mg/kg/injection, schedule: Q01DX009 (ip), vehicle: Klucel (hydroxypropylcellulose) (HPC) 86 % of control | dose: 25.0 mg/kg/injection, schedule: Q04DX003 (ip), vehicle: Klucel (hydroxypropylcellulose) (HPC) 104 % of control | [11] 93 % of control | dose: 50.0 mg/kg/injection, schedule: Q04DX003 (ip), vehicle: Klucel (hydroxypropylcellulose) (HPC) 103 % of control | [24] 102 % of control | [12] 101 % of control | [14] 101 % of control | [25] 98 % of control | [26] 107 % of control

C[N+](C)(C)CCOC(=O)c1ccc(CCl)cc1
inactive: dose: 25.0 mg/kg/injection, schedule: Q04DX002 (ip), vehicle: saline with Tween-80 113 % of control | dose: 50.0 mg/kg/injection, schedule: Q04DX002 (ip), vehicle: saline with Tween-80 102 % of control | dose: 100.0 mg/kg/injection, schedule: Q04DX002 (ip), vehicle: other 98 % of control | dose: 100.0 mg/kg/injection, schedule: Q04DX002 (ip), vehicle: saline with Tween-80 110 % of control

Cc1cc(NC(=O)Nc2cc(F)ccc2F)no1
inactive: [24] 117 % of control | [12] 97 % of control | [17] 94 % of control and 90 % of control | [14] 99 % of control | [25] 106 % of control | [13] 92 % of control and 100 % of control | [18] 94 % of control and 97 % of control | [15] 103 % of control | [26] 101 % of control | [19] 97 % of control and 90 % of control | [20] 94 % of control and 101 % of control | [16] 103 % of control

O=CN/N=C/c1ccc2c(c1)CCC2
inactive: [22] 97 % of control | [23] 102 % of control | dose: 400.0 mg/kg/injection, schedule: Q01DX009 (ip), vehicle: saline with Tween-80 98 % of control

Nc1cnccc1NCCc1cccc(O)c1
inactive: dose: 12.5 mg/kg/injection, schedule: Q01DX009 (ip), vehicle: saline with Tween-80 97 % of control | dose: 25.0 mg/kg/injection, schedule: Q01DX009 (ip), vehicle: saline with Tween-80 103 % of control | [21] 89 % of control | [23] 88 % of control

Cc1ccc(-c2ccno2)cc1
inactive: [5] 96 % of control | [6] 92 % of control | [7] 97 % of control

O=C(NCCCl)NC1CCS(=O)(=O)C1 (centres undefined)
inactive: dose: 100.0 mg/kg/injection, schedule: Q01DX001 (ip), vehicle: other 98 % of control | dose: 200.0 mg/kg/injection, schedule: Q01DX001 (ip), vehicle: other 98 % of control | dose: 400.0 mg/kg/injection, schedule: Q01DX001 (ip), vehicle: other 98 % of control

CCOC(=O)C1CCCN(S(=O)(=O)c2ccc(C)cc2)c2ccccc2C1=O (centres undefined)
inactive: [14] 93 % of control | [15] 102 % of control | [16] 94 % of control
